{"source": "patent EP0932388B1", "about": "“DOSAGE FORM AND METHOD FOR ADM[…]” (ALZA CORPORATION, priority 1996, dated 1998)", "system": "school children", "assay": "clinical study of methylphenidate release profiles (SKAMP and CLAM ratings, mathematics test, activity monitor)", "assay_type": "in vivo", "settings": "oral", "description": "The CLAM Test is a behavior rating that indicates social conformity or rebellion as developed by Conners, Lonez, and Milch and SKAMP is a rating that also measures behavior as developed by Swanson and reported in Psychopharmacological Bulletin, Vol. 21, pp. 887-890 (1985).\nThe effect measurements in this study were: (1) observer ratings on SKAMP scale (during classroom time) and (2) performance on the computerized mathematics test. Each child was tested on the mathematics test before the study began, and based on this pre-test during the study, a mathematics test appropriate for each child's ability was given. The morning and evening parent CLAM assessments were used to identify unusual behaviors. The evening parent CLAM was used to determine the presence of treatment effects in the evening hours, particularly treatment effects on the time the child fell asleep, and whether the child's sleep was interrupted. All of the children also wore an activity monitor (Actigraph) which records the movements of the child throughout the day. The activity (number of movements per minute) is recorded electronically and modeled as a function of the drug effect.\nThe immediate release tablet and the sustained-release dosage form were compared to a sustained-release dosage form that administered methylphenidate in an ascending profile. The sustained-release ascending profile corresponds to administering 4.2 mg at zero hour, 1.1 mg at 1.5 hours, 1.1 mg at 2 hours, 1.2 mg at 2.5 hours, 1.2 mg at 3.0 hours, 1.3 mg at 3.5 hours, 1.3 mg at 4 hours, 1.5 mg at 4.5 hours, 1.5 mg at 5 hours, 1.8 mg at 5.5 hours, 1.8 mg at 6 hours, and 2.0 mg at 6.5 hours, to produce the sustained-ascending release dotted line profile seen in Figure 2.\nThe accompanying figures present the results of the above-described study. […]"}
{"smiles": "COC(=O)C(c1ccccc1)C1CCCCN1", "note": "(stereo not drawn) [methylphenidate]", "values": [{"measurement": "therapeutic effect and tolerance", "setting": "controlled-sustained ascending profile of methylphenidate", "value": "desired therapeutic effect without tolerance"}, {"measurement": "acute tolerance", "setting": "sustained-nonascending dose of methylphenidate (20 mg program)", "value": "development of acute tolerance"}, {"measurement": "behavior, activity and mathematical scores", "setting": "sustained-nonascending dose of methylphenidate (20 mg program), versus placebo", "value": "a decrease in activity, higher mathematical scores and a lessening of inappropriate behavior"}]}
